In patent US8686113B2 (priority 2009, dated 2014):
Converted amounts (≈) assume the structure as drawn. Read-outs that look alike come from different tables or passages of the source. Non-standard residues stand in square brackets, D forms with d. Residues, ends and D or L forms follow the SMILES beside them. No end group written: not given here. *: point of attachment. Hyp = O=C(O)[C@@H]1C[C@@H](O)CN1; hArg = N=C(N)NCCCC[C@H](N)C(=O)O; β3hR = N=C(N)NCCC[C@H](N)CC(=O)O; Orn = NCCC[C@H](N)C(=O)O; NHPr = CCCN*

Tests used:
[1] = mouse, serum, Half-life in 25% mouse serum, 25% aqueous mouse serum, 37° C., 75 μg/mL peptide
E. coli BL21 A1 = assay type: cell-based, Escherichia coli
How it was run: (§1)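 Broth microdilution in 1% TSB with twofold peptide series, final 128 μg/mL to 62.5 ng/mL, against 5×10^6 bacteria/mL stock suspension added 1:1. Incubated 20 h at 37 °C, growth read by absorbance at 595 nm; MIC is the lowest concentration with no growth, determined in triplicate.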

[2] = mouse, serum
Procedure: For this, the peptides and peptidomimetics were dissolved in water, mouse serum was added and the peptide concentration was adjusted to 75 μg/mL. While shaking continuously, the mixture was incubated at 37° C. After 0, 30, 60, 120, 240 and 360 minutes, in each case an aliquot was taken and mixed with 15% aqueous trichloroacetic acid (Carl Roth GmbH & Co. KG; Karlsruhe, Germany). After incubation on ice for a further 10 minutes, the precipitated serum proteins were centrifuged off (5 min, 13400 rpm, MiniSpin, Eppendorf AG, Hamburg, Germany). The supernatant was removed, neutralized with 1 mol/L aqueous sodium hydroxide solution (Fluke Chemie GmbH, Buchs, Switzerland) and stored at −20° C. until analysis.
The supernatants were analyzed by RP-HPLC with a linear acetonitrile gradient (Biosolve BV, Valkenswaard, The Netherlands) in the presence of 0.1% trifluoroacetic acid (TFA, UV-grade, Fluka Chemie GmbH, Buchs, Switzerland) as ion-pairing reagent. The fractions were co-crystallized with α-cyanohydroxycinnamic acid (Bruker Daltonik GmbH; Bremen, Germany) as matrix (5.3 mg/mL in 50% acetonitrile in 0.1% aqueous TFA) and were analyzed with a tandem mass spectrometer (MALDI-TOF/TOF-MS, 4700 Proteomics Analyzer; Applied Biosystems GmbH, Weiterstadt, Germany) in the positive-ion reflector mode. The proportion of intact peptides and their degradation products or metabolites could thus be identified and quantified at the individual time points. The control used was 25% aqueous mouse serum, which was analyzed in parallel for the same time intervals.

M. luteus 10240 = experiment: Growth inhibition assay (microdilution MIC); assay type: cell-based, Micrococcus luteus
How it was run: as §1

In the case of CC[C@H](C)[C@H](NC(=O)[C@H](CCCNC(=N)N)NC(=O)[C@H](CCCNC(=N)N)NC(=O)[C@@H]1CCCN1C(=O)[C@@H]1CCCN1C(=O)[C@H](CCCNC(=N)N)NC(=O)[C@@H]1CCCN1C(=O)[C@H](CCCNC(=N)N)NC(=O)[C@@H]1CCCN1C(=O)[C@H](CC(C)C)NC(=O)[C@H](Cc1ccc(O)cc1)NC(=O)[C@@H]1CCCN1C(=O)[C@@H]1CCCN1C(=O)[C@H](CCCCN)NC(=O)[C@H](CC(=O)O)NC(=O)[C@@H](N)C(C)C)C(=O)N[C@@H](Cc1ccc(O)cc1)C(=O)N[C@@H](CC(N)=O)C(=O)N[C@@H](CCCN)C(N)=O [SEQ ID NO. 50, VDKPPYLPRPRPPRRIYNO-NH2] (H-VDKPPYLPRPRPPRRIYN[Orn]-NH2), the half-life [1] is reported as 1.5 h.
Molecule CCCNC(=O)[C@H](CCCNC(=N)N)NC(=O)[C@H](CC(N)=O)NC(=O)[C@H](Cc1ccc(O)cc1)NC(=O)[C@@H](NC(=O)[C@H](CCCNC(=N)N)NC(=O)[C@H](CCCNC(=N)N)NC(=O)[C@@H]1CCCN1C(=O)[C@@H]1CCCN1C(=O)[C@H](CCCNC(=N)N)NC(=O)[C@@H]1CCCN1C(=O)[C@H](CCCNC(=N)N)NC(=O)[C@@H]1CCCN1C(=O)[C@H](CC(C)C)NC(=O)[C@H](Cc1ccc(O)cc1)NC(=O)[C@@H]1CCCN1C(=O)[C@@H]1CCCN1C(=O)[C@H](CCCCN)NC(=O)[C@H](CC(=O)O)NC(=O)[C@@H](N)C(C)C)[C@@H](C)CC [SEQ ID NO. 58] (H-VDKPPYLPRPRPPRRIYNR-NHPr) has a half-life [1] of 2 h.
CC[C@H](C)[C@H](NC(=O)[C@H](CCCN)NC(=O)[C@H](CCCNC(=N)N)NC(=O)[C@@H]1CCCN1C(=O)[C@@H]1CCCN1C(=O)[C@H](CCCNC(=N)N)NC(=O)[C@@H]1CCCN1C(=O)[C@H](CCCNC(=N)N)NC(=O)[C@@H]1CCCN1C(=O)[C@H](CC(C)C)NC(=O)[C@H](Cc1ccc(O)cc1)NC(=O)[C@@H]1CCCN1C(=O)[C@@H]1CCCN1C(=O)[C@H](CCCCN)NC(=O)[C@H](CC(=O)O)NC(=O)[C@@H](N)C(C)C)C(=O)N[C@@H](Cc1ccc(O)cc1)C(=O)N[C@@H](CC(N)=O)C(=O)N[C@@H](CCCNC(=N)N)C(N)=O [SEQ ID NO. 61, VDKPPYLPRPRPPROIYNR-NH2] (H-VDKPPYLPRPRPPR[Orn]IYNR-NH2) gave a half-life [1] of 2 h.
With CC[C@H](C)[C@H](NC(=O)C[C@H](CCCNC(=N)N)NC(=O)[C@H](CCCNC(=N)N)NC(=O)[C@@H]1CCCN1C(=O)[C@@H]1CCCN1C(=O)[C@H](CCCNC(=N)N)NC(=O)[C@@H]1CCCN1C(=O)[C@H](CCCNC(=N)N)NC(=O)[C@@H]1CCCN1C(=O)[C@H](CC(C)C)NC(=O)[C@H](Cc1ccc(O)cc1)NC(=O)[C@@H]1CCCN1C(=O)[C@@H]1CCCN1C(=O)[C@H](CCCCN)NC(=O)[C@H](CC(=O)O)NC(=O)[C@@H](N)C(C)C)C(=O)N[C@@H](Cc1ccc(O)cc1)C(=O)N[C@@H](CC(N)=O)C(=O)N[C@@H](CCCNC(=N)N)C(N)=O [SEQ ID NO. 62] (H-VDKPPYLPRPRPPR[β3hR]IYNR-NH2) the half-life [1] was 2.5 h.
With CCCNC(=O)[C@H](CCCNC(=N)N)NC(=O)[C@H](CC(N)=O)NC(=O)[C@H](Cc1ccc(O)cc1)NC(=O)[C@@H](NC(=O)[C@H](CCCN)NC(=O)[C@H](CCCNC(=N)N)NC(=O)[C@@H]1CCCN1C(=O)[C@@H]1CCCN1C(=O)[C@H](CCCNC(=N)N)NC(=O)[C@@H]1CCCN1C(=O)[C@H](CCCNC(=N)N)NC(=O)[C@@H]1CCCN1C(=O)[C@H](CC(C)C)NC(=O)[C@H](Cc1ccc(O)cc1)NC(=O)[C@@H]1CCCN1C(=O)[C@@H]1CCCN1C(=O)[C@H](CCCCN)NC(=O)[C@H](CC(=O)O)NC(=O)[C@@H](N)C(C)C)[C@@H](C)CC [SEQ ID NO. 71, VDKPPYLPRPRPPROIYNR-NHC3H7] (H-VDKPPYLPRPRPPR[Orn]IYNR-NHPr) the “MIC E. coli BL21 A1” value (E. coli BL21 A1; BL21, 20 h) was 4 µg/mL (≈ 1.67 µM) and the half-life [1] was > 6 h.
In the case of CC[C@H](C)[C@H](NC(=O)[C@@H]1C[C@@H](O)CN1C(=O)[C@H](CCCNC(=N)N)NC(=O)[C@@H]1CCCN1C(=O)[C@@H]1CCCN1C(=O)[C@H](CCCNC(=N)N)NC(=O)[C@@H]1CCCN1C(=O)[C@H](CCCNC(=N)N)NC(=O)[C@@H]1CCCN1C(=O)[C@H](CC(C)C)NC(=O)[C@H](Cc1ccc(O)cc1)NC(=O)[C@@H]1CCCN1C(=O)[C@@H]1CCCN1C(=O)[C@H](CCCCN)NC(=O)[C@H](CC(=O)O)NC(=O)[C@@H](N)C(C)C)C(=O)N[C@@H](Cc1ccc(O)cc1)C(=O)N[C@@H](CC(N)=O)C(=O)N[C@@H](CCCNC(=N)N)C(N)=O [compound 25] (H-VDKPPYLPRPRPPR[Hyp]IYNR-NH2), the “MIC E. coli BL21 A1” value (E. coli BL21 A1; BL21, 20 h) is reported as 16 µg/mL (≈ 6.82 µM), the half-life [2] is reported as 4 h and the “MIC M. luteus 10240” value (M. luteus 10240; 10240, 20 h) is reported as 8 µg/mL (≈ 3.41 µM).
With CC[C@H](C)[C@H](NC(=O)[C@H](CCCCNC(=N)N)NC(=O)[C@H](CCCNC(=N)N)NC(=O)[C@@H]1CCCN1C(=O)[C@@H]1CCCN1C(=O)[C@H](CCCNC(=N)N)NC(=O)[C@@H]1CCCN1C(=O)[C@H](CCCNC(=N)N)NC(=O)[C@@H]1CCCN1C(=O)[C@H](CC(C)C)NC(=O)[C@H](Cc1ccc(O)cc1)NC(=O)[C@@H]1CCCN1C(=O)[C@@H]1CCCN1C(=O)[C@H](CCCCN)NC(=O)[C@H](CC(=O)O)NC(=O)[C@@H](N)C(C)C)C(=O)N[C@@H](Cc1ccc(O)cc1)C(=O)N[C@@H](CC(N)=O)C(=O)N[C@@H](CCCCNC(=N)N)C(N)=O [compound 67] (H-VDKPPYLPRPRPPR[hArg]IYN[hArg]-NH2) the “MIC E. coli BL21 A1” value (E. coli BL21 A1; BL21, 20 h) was 4 µg/mL (≈ 1.65 µM), the half-life [2] was 0.917 h and the “MIC M. luteus 10240” value (M. luteus 10240; 10240, 20 h) was 4 µg/mL (≈ 1.65 µM).
With H-VDKPPYLPRPRPPRRIYN-OH [SEQ ID NO. 28] the “MIC E. coli BL21 A1” value (E. coli BL21 A1; 1% TSB, 20 h at 37° C.) was 64 µg/mL and the half-life [1] was 2 h.
With H-VDKPPYLPRPRPPRRIYNN-NH2 [compound 51] the “MIC E. coli BL21 A1” value (E. coli BL21 A1; BL21, 20 h) was 16 µg/mL, the half-life [1] was 2 h and the “MIC M. luteus 10240” value (M. luteus 10240; 10240, 20 h) was 64 µg/mL.
With “H-VDKPPYLPRPRPPRRIYNRN-NH2 [compound 17]” the “MIC E. coli BL21 A1” value (E. coli BL21 A1; BL21, 20 h) was 16 µg/mL, the half-life [1] was 0.75 h and the “MIC M. luteus 10240” value (M. luteus 10240; 10240, 20 h) was 128 µg/mL.
For “H-VDKPPYLPRPRPPRRIYPQPRPPHPRL-NH2 [compound 49]”, the “MIC E. coli BL21 A1” value (E. coli BL21 A1; BL21, 20 h) was 4 µg/mL and the “MIC M. luteus 10240” value (M. luteus 10240; 10240, 20 h) was 4 µg/mL.
In the case of H-VDKPPYLPRPRPPRRIYQR-NH2 [compound 79], the “MIC E. coli BL21 A1” value (E. coli BL21 A1; BL21, 20 h) is reported as 8 µg/mL and the “MIC M. luteus 10240” value (M. luteus 10240; 10240, 20 h) is reported as 8 µg/mL.
In the case of H-VDKPPYLPRPRPPRRLYNR-NH2 [compound 78], the “MIC E. coli BL21 A1” value (E. coli BL21 A1; BL21, 20 h) is reported as 8 µg/mL and the “MIC M. luteus 10240” value (M. luteus 10240; 10240, 20 h) is reported as 16 µg/mL.
In the case of H-VDKPPYLPRPRPRPRIYNR-NH2 [compound 59], the “MIC E. coli BL21 A1” value (E. coli BL21 A1; BL21, 20 h) is reported as 8 µg/mL and the “MIC M. luteus 10240” value (M. luteus 10240; 10240, 20 h) is reported as 16 µg/mL.
With H-VDKPPYLPRPTPPRRIYNNR-OH [compound 4] the “MIC E. coli BL21 A1” value (E. coli BL21 A1; BL21, 20 h) was 128 µg/mL and the “MIC M. luteus 10240” value (M. luteus 10240; 10240, 20 h) was 64 µg/mL.
With H-VDKPPYLPRPYPPRRIYNR-OH [compound 10] the “MIC E. coli BL21 A1” value (E. coli BL21 A1; BL21, 20 h) was 128 µg/mL and the “MIC M. luteus 10240” value (M. luteus 10240; 10240, 20 h) was 16 µg/mL.
For H-VDRPPYLPRPRPPRRIYNR-NH2 [compound 76], the “MIC E. coli BL21 A1” value (E. coli BL21 A1; BL21, 20 h) was 16 µg/mL and the “MIC M. luteus 10240” value (M. luteus 10240; 10240, 20 h) was 8 µg/mL.
For H-VEKPPYLPRPRPPRRIYNR-NH2 [compound 75], the “MIC E. coli BL21 A1” value (E. coli BL21 A1; BL21, 20 h) was 16 µg/mL and the “MIC M. luteus 10240” value (M. luteus 10240; 10240, 20 h) was 8 µg/mL.
With VDKGSYLPRPTPPRPIYNRN-NH2 [compound 91] the “MIC E. coli BL21 A1” value (E. coli BL21 A1; BL21, 20 h) was 16 µg/mL and the “MIC M. luteus 10240” value (M. luteus 10240; 1% TSB, 20 h at 37° C.) was 128 µg/mL.
In the case of VDKPPYLPRPRPPRPIYNR-NH2 [SEQ ID NO. 60], the half-life [1] is reported as 2 h.
In the case of VDKPPYLPRPRPPRPIYNR-NH2 [compound 60], the “MIC E. coli BL21 A1” value (E. coli BL21 A1; BL21, 20 h) is reported as 8 µg/mL and the “MIC M. luteus 10240” value (M. luteus 10240; 10240, 20 h) is reported as 64 µg/mL.
With VDKPPYLPRPRPPRRIYNNR-OH [SEQ ID NO. 14] the half-life [1] was < 0.5 h.
With VDKPPYLPRPRPPRRIYNR-OH [SEQ ID NO. 19] the half-life [1] was < 0.5 h.
